From patent US20240425464A1, “Substituted Monohydrazides as Potent Antifungal Agents” (University of Kentucky Research Foundation, priority 2023, published 2024) come the findings set out here.

In brackets after ≈: the same amount, converted by molar mass. Read-outs that look alike come from different tables or passages of the source.

The subject of one series is HepG2 cells. Briefly: In vitro cytotoxicity assay (resazurin). The conditions noted are these: for toxicity: up to 31.3 j·tg mL^−1, 24 h; for cell survival: at 31.3 j·tg mL^−1. Type of series: cell-based. Here is the method: The antifungal agent amphotericin B (AmB) was purchased from VWR (Radnor PA, USA). AmB was dissolved in DMSO at a final concentration of 5 mg/mL and was stored at −20° C., protected from light. […] For cytotoxicity assays, HepG2 and the mouse macrophage cell line J774A.1 were obtained from University of Kentucky. […] Mammalian cells were grown in Dulbecco's Modified Eagle's Medium (DMEM) (from VWR) with 10% fetal bovine serum (FBS) (from VWR) and 1% Pen/Strep (from ATCC). Cell lines were cultured at 37° C. with 5% CO2 and passaged by trypsinization with 0.05% trypsin: 0.53 mM EDTA (from Sigma-Aldrich).
Cytotoxicity assays were performed as previously described with slight modifications.^3 HepG2, J774A.1, and HEK-293 cells were first thawed from frozen stocks kept in liquid N2 and grown in Dulbecco's modified Eagles's medium (DMEM) containing 10% fetal bovine serum (FBS) and 1% Pen/Strep. […] The 96-well plates were incubated 37° C. with 5% CO2 overnight. […] The medium in the 96-well plates containing the cells was aspirated and replaced by fresh DMEM (100 μL). […] The 96-well plates were further incubated for 24 h at 37° C. with 5% CO2 overnight. To evaluate cell survival, each well was treated with 10 μL (2 mM) of resazurin sodium salt (Sigma-Aldrich, St. Louis, MO, USA) and was incubated for another 6 h. Metabolically active cells can convert resazurin to the highly fluorescent dye, resorufin, and be detected at ?560 excitation and λ590 emission using a SpectraMax M5 plate reader (Molecular Devices, San Jose, CA, USA). Triton X-100® (1%, v/v) was used as positive control; the negative control consisted of cells treated with the delivery vehicle (0.05% DMSO), and the blank control was only the culture medium with 0.05% DMSO without cells. The experiments were performed in quadruplicate.
A general note: Alamar Blue is a resazurin reagent that responds to reducing activity.

For series [1], the system named is Saccharomyces cerevisiae AR Bank #400. Briefly: MIC determination by in vitro antifungal assay. In kind it is cell-based. How it is done:
The antifungal agent amphotericin B (AmB) was purchased from VWR (Radnor PA, USA). AmB was dissolved in DMSO at a final concentration of 5 mg/mL and was stored at −20° C., protected from light. Candida albicans American Type Culture Collection (ATCC) 10231 (strain A), C. albicans ATCC 64124 (B), and C. albicans ATCC MYA-2876 (C) were obtained from Utah State University. C. albicans ATCC 90819 (D), C. albicans ATCC MYA-2310 (E), C. albicans ATCC MYA-1237 (F), C. albicans ATCC MYA-1003 (G), Candida glabrata ATCC 2001 (H), Candida krusei ATCC 6258 (I), Candida parapsilosis ATCC 22019 (J), Cryptococcus neoformans ATCC MYA-895 (M), Aspergillus terreus ATCC MYA-3633 (N), and Aspergillus flavus ATCC MYA-3631 (0) were obtained from the American Type Culture Collection (ATCC; Manassas, VA, USA). Aspergillus nidulans ATCC 38163 (P) was obtained from University of Kentucky. Clinically derived Aspergillus fumigatus NRRL 163 (Q), A. fumigatus NRRL 5109 (R), and A. fumigatus NRRL 6113 (S) were obtained from Northern Regional Research Laboratory (NRRL). Candida auris 384 (K), C. auris 390 (L), and fungal strains 381-400 (including 10 C. auris (AR Bank #381-390), 3 Candida duobushaemulonii (AR Bank #391, AR Bank #392, and AR Bank #394), 2 Candida haemulonii (AR Bank #393 and AR Bank #395), 1 Kodameae ohmeri (AR Bank #396), 1 C. krusei (AR Bank #397), 1 Candida lusitaniae (AR Bank #398), and 2 Saccharomyces cerevisiae strains (AR Bank #399 and AR Bank #400)) were part of a larger fungal library from the AR Bank maintained by the Centers for Disease Control and Prevention (CDC; Atlanta, GA, USA). Filamentous fungi and yeasts were cultivated at 35° C. in RPMI 1640 medium (with L-glutamine, without sodium bicarbonate, Sigma-Aldrich, St. Louis, MO) buffered to a pH of 7.0 with 0.165 M morpholinepropanesulfonic acid (MOPS) buffer (Sigma-Aldrich). For cytotoxicity assays, HepG2 and the mouse macrophage cell line J774A.1 were obtained from University of Kentucky. The human embryonic kidney cell line, HEK-293, was bought from the ATCC. Mammalian cells were grown in Dulbecco's Modified Eagle's Medium (DMEM) (from VWR) with 10% fetal bovine serum (FBS) (from VWR) and 1% Pen/Strep (from ATCC). Cell lines were cultured at 37° C. with 5% CO2 and passaged by trypsinization with 0.05% trypsin: 0.53 mM EDTA (from Sigma-Aldrich).
From the actively growing yeast culture, 100 µL were then transferred to 900 μL of RPMI 1640 medium and re-adjusted to achieve OD600 of 0.12 (˜1×10^6 CFU/mL). The cell suspension was further diluted to achieve 1:100 in RPMI 1640 medium.

Series [2] relates to C. albicans ATCC 10231 (strain A). Briefly: Time-kill assay. Type of series: cell-based, Candida albicans. The note with it: at 4×MIC; CFU at 0-24 h. How it is done:
Compounds were then added to the fungal cells. […] Experiments were performed in duplicate.

For the compound `O=C(NNc1cccc(F)c1)c1ccccn1` [Compound 2a], in the series with HepG2 cells, the toxicity result was “no toxicity”. `O=C(NNc1ccc(F)cc1)c1ccccn1` [Compound 2d]: in the series on HepG2 cells, the toxicity entry is reported as “no toxicity”. Same read-out and setting: the entry for `O=C(NNc1ccc(F)cc1F)c1cnccn1` [Compound 9g] is “no toxicity”. Consider `COc1cccc(NNC(=O)c2ccccn2)c1` [Compound 2c], for which the MIC in series [1] worked out at 7.8 μg/mL^−1.

In the case of `O=C(NNc1cc(F)cc(F)c1)c1ccccn1` [Compound 2i], in the series with HepG2 cells, the cell survival was 89%. As to `O=C(NNc1cccc(Cl)c1)c1ccccn1` [Compound 2b], in the series on HepG2 cells, the toxicity entry is “no toxicity”. The “fungistatic or fungicidal behavior in time-kill assay” value in series [2] is given as “fungistatic”.

On to `COc1cccc(NNC(=O)c2cnccn2)c1` [Compound 9c], for which the MIC in series [1] (read-out: MIC) turned out to be 3.9 µg/mL (≈ 16 µM). Also, the toxicity result in the series with HepG2 cells was “no toxicity”. With `O=C(NNc1cc(Cl)cc(Cl)c1)c1ccccn1` [Compound 2j], the MIC in series [1] (read-out: MIC) came out at 3.9 µg/mL (≈ 13.8 µM). With `COc1ccc(NNC(=O)c2cnccn2)cc1` [Compound 9f], the toxicity entry in the series on HepG2 cells is given as “no toxicity”. In the series on HepG2 cells, `O=C(NNc1cccc(F)c1)c1cnccn1` [Compound 9a] came in with a cell survival of 94%. Turning to `O=C(NNc1ccc(F)cc1F)c1ccccn1` [Compound 2g], in the series on HepG2 cells, the toxicity result is “no toxicity”. For the compound `O=C(NNc1cccc(Cl)c1)c1cnccn1` [Compound 9b], the toxicity entry in the series on HepG2 cells is given as “no toxicity”.

Regarding `O=C(NNc1ccc(Cl)cc1)c1cnccn1` [Compound 9e], the MIC in series [1] was found to be 3.9 μg/mL^−1.
